ChEMBL document CHEMBL5137065, “Recent Advances with KDM4 Inhibitors and Potential Applications” (J Med Chem, 2022)
Positions of bridges follow the written chain, without caps; N, C: chain ends. Non-standard residues stand in square brackets, D forms with d. Residues, ends and D or L forms follow the SMILES beside them.

Tests used:
[1] = target: Lysine-specific demethylase 5A (Homo sapiens, UniProt P29375); experiment: Inhibition of KDM5A (unknown origin) measured by AlphaScreen assay
[2] = target: Lysine-specific demethylase 6B (Homo sapiens, UniProt O15054); experiment: Inhibition of KDM6B (unknown origin) measured by AlphaScreen assay
[3] = target: T1, Lysine-specific demethylase 4B (Homo sapiens, UniProt O94953); experiment: Inhibition of KDM4B (unknown origin) measured by AlphaScreen assay
T1 sequence (O94953 whole entry): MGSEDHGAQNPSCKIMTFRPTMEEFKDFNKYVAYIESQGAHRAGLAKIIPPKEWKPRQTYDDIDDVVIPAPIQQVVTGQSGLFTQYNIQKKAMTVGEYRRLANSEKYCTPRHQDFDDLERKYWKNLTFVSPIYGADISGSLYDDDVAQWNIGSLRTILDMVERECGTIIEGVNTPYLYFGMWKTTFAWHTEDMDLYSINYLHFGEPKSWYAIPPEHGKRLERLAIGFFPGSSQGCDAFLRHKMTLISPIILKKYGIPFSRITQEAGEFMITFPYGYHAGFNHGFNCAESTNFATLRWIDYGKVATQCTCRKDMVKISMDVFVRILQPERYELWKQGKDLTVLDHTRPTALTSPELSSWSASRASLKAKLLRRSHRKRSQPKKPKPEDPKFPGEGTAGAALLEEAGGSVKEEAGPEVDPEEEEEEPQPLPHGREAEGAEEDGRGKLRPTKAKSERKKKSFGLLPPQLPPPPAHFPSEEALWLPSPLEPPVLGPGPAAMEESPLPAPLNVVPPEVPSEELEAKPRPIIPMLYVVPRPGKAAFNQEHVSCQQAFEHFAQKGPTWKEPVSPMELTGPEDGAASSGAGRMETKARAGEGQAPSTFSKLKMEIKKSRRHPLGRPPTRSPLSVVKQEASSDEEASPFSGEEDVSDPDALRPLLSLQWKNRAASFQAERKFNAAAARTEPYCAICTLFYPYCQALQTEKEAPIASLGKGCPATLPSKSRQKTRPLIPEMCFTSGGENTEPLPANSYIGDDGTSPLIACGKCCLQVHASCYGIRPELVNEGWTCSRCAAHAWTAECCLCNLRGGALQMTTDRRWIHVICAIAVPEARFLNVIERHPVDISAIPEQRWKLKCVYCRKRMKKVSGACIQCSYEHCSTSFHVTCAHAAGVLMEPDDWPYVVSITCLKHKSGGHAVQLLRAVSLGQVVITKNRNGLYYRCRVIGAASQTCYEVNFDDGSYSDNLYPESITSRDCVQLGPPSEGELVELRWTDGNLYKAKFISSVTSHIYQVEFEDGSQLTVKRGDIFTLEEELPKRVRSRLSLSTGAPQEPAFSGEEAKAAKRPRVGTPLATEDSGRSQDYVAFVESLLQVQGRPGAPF

[4] = target: T2, Lysine-specific demethylase 4A (Homo sapiens, UniProt O75164); experiment: Inhibition of KDM4A (unknown origin) measured by AlphaScreen assay
T2 sequence (O75164 whole entry): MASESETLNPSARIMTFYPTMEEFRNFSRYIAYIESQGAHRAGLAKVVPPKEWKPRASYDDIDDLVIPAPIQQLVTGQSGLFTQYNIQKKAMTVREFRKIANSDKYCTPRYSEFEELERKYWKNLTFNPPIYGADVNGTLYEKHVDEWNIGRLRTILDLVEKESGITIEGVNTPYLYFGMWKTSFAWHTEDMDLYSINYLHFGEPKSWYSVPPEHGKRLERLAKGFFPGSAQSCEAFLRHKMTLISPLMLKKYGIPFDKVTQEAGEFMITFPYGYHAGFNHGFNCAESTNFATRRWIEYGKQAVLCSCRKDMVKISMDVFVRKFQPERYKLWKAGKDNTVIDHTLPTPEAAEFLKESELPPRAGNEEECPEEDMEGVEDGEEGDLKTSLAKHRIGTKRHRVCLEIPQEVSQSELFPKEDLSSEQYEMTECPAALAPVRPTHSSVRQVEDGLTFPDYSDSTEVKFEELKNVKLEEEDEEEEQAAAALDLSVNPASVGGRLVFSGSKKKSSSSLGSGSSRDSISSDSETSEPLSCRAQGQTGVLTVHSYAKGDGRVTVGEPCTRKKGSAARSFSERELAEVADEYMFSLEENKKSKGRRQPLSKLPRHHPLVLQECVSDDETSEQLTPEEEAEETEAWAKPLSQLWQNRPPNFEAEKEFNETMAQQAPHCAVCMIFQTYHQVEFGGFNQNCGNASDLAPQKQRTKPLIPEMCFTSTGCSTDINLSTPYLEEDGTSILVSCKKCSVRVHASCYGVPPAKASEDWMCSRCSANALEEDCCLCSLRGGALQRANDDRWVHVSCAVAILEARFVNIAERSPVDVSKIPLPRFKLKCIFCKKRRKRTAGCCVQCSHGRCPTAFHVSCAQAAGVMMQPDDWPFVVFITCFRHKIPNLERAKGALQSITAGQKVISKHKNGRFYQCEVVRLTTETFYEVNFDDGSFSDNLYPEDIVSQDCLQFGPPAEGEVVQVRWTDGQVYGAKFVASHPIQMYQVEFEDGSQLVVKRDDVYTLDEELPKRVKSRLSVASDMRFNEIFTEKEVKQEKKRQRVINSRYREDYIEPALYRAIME

[5] = target: T3, Lysine-specific demethylase 4C (Homo sapiens, UniProt Q9H3R0); experiment: Inhibition of KDM4C (unknown origin) measured by AlphaScreen assay
T3 sequence (Q9H3R0 whole entry): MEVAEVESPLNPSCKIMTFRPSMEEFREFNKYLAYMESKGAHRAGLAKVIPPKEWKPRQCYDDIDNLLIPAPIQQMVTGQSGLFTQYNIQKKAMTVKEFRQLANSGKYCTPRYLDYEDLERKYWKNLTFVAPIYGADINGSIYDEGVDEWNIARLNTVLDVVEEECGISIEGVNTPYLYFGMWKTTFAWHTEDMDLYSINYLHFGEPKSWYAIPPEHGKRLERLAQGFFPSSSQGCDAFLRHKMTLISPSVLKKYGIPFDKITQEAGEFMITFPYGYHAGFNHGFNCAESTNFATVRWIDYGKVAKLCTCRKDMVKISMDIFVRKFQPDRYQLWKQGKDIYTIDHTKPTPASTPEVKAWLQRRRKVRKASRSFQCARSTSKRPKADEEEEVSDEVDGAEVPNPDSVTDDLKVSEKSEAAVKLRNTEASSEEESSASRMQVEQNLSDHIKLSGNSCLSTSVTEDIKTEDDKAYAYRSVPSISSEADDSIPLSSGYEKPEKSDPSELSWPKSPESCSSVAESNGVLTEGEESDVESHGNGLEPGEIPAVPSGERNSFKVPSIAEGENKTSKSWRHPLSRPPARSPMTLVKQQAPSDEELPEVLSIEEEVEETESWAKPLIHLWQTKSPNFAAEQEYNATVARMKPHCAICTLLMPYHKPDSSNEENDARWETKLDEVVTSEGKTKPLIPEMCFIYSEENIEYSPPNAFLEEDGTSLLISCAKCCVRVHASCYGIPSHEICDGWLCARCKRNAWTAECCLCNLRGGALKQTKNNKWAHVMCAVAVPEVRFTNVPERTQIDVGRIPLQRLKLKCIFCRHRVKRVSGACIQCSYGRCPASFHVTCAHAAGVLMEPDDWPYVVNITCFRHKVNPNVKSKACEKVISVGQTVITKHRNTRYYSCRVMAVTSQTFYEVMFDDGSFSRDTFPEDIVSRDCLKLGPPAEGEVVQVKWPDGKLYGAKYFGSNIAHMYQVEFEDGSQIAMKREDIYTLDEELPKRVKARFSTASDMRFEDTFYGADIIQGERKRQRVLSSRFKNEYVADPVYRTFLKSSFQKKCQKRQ

[6] = target: T2, Lysine-specific demethylase 4A
[7] = target: T4, Lysine-specific demethylase 2A (Homo sapiens, UniProt Q9Y2K7); experiment: Inhibition of KDM2A in human MIA PaCa-2 cells assessed as induction of H3K36me2 measured by immunofluorescence assay; type: cell-based
T4 sequence (Q9Y2K7 whole entry): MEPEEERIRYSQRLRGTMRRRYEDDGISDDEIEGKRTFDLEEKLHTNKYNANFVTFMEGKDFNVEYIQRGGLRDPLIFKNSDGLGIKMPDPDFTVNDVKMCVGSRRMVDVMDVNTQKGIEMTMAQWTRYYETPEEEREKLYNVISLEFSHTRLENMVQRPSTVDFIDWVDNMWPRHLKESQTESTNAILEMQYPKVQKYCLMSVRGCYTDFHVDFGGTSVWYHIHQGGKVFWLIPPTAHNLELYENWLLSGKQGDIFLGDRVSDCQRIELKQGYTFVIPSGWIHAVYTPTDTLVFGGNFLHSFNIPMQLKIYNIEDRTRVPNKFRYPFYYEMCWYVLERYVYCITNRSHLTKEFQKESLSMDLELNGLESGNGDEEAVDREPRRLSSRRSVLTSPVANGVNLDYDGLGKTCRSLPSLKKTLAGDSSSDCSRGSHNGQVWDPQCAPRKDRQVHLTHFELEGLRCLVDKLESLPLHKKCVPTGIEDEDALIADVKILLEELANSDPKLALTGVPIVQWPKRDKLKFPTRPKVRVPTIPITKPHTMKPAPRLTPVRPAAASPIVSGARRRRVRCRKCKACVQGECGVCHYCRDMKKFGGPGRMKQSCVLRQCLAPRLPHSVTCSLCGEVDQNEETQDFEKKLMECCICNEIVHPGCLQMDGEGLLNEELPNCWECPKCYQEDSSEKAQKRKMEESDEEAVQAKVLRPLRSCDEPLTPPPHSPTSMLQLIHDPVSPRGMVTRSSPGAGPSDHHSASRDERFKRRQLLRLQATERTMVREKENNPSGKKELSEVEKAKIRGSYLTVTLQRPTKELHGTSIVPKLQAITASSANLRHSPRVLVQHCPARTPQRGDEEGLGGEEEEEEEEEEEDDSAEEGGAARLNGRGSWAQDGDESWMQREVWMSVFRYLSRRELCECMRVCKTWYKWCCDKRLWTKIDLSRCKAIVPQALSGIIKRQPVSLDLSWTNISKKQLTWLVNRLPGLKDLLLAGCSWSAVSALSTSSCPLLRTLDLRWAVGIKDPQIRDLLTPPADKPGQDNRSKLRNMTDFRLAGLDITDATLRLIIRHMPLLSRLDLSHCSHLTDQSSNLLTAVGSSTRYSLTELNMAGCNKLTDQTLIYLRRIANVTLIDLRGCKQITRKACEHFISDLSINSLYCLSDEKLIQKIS

[8] = target: T2, Lysine-specific demethylase 4A; experiment: Inhibition of KDM4A in human KYSE-150 cells assessed as increase in H3K9me3 level; type: cell-based, KYSE-150 cell line
[9] = system: KYSE-150 cell line; experiment: Antiproliferative activity against human KYSE-150 cells; type: functional
[10] = system: HL-60; experiment: Antiproliferative activity against human HL-60 cells; type: functional
[11] = target: T2, Lysine-specific demethylase 4A; experiment: Inhibition of KDM4A (unknown origin) measured by formaldehyde dehydrogenase (FDH)-coupled fluorescence assay
[12] = target: T2, Lysine-specific demethylase 4A; experiment: Inhibition of KDM4A (unknown origin) measured by LANCEUltra assay

Chain of Lysine-specific demethylase 5A (P29375 whole entry): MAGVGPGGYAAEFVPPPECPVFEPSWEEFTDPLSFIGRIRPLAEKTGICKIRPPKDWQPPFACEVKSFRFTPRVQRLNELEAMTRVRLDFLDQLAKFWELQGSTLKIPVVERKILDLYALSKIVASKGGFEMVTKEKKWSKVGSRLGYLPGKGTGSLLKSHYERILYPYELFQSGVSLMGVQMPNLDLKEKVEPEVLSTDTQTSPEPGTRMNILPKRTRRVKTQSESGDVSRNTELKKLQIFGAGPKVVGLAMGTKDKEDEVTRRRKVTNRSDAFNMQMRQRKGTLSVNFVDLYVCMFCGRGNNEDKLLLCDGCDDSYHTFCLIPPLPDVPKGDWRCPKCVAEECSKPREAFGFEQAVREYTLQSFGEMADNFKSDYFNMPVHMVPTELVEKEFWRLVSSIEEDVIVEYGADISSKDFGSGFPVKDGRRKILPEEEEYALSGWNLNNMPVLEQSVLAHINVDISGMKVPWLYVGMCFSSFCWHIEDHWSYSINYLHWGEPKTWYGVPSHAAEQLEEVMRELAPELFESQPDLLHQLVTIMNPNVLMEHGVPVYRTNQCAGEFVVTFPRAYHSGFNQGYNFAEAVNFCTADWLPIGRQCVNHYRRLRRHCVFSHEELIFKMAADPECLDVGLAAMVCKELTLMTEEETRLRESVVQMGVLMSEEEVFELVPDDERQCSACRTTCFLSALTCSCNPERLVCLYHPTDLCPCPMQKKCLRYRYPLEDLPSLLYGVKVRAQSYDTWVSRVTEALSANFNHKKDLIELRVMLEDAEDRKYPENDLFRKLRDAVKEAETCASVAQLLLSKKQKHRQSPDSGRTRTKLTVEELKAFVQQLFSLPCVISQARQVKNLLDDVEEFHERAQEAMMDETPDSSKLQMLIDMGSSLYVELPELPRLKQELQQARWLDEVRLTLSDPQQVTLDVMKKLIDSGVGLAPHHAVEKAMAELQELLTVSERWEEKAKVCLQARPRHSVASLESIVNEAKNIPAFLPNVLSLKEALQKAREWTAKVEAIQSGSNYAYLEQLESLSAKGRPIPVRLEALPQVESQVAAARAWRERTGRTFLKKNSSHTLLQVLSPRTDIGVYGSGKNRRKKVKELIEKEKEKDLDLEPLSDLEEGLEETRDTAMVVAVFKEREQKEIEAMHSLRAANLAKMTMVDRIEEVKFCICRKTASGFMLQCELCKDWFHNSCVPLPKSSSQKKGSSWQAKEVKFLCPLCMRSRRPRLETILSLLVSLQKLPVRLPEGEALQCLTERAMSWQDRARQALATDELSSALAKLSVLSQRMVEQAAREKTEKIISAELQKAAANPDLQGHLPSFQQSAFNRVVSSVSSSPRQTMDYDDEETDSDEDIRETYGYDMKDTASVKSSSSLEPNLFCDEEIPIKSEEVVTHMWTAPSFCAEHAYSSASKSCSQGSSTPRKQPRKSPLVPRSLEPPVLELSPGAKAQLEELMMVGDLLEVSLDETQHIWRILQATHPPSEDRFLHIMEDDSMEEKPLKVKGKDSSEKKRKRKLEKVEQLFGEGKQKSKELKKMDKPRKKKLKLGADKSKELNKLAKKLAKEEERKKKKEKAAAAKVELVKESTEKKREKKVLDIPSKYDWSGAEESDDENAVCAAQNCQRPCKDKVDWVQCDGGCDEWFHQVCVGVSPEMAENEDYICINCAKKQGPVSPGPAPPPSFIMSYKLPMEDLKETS
Chain of Lysine-specific demethylase 6B (O15054 whole entry): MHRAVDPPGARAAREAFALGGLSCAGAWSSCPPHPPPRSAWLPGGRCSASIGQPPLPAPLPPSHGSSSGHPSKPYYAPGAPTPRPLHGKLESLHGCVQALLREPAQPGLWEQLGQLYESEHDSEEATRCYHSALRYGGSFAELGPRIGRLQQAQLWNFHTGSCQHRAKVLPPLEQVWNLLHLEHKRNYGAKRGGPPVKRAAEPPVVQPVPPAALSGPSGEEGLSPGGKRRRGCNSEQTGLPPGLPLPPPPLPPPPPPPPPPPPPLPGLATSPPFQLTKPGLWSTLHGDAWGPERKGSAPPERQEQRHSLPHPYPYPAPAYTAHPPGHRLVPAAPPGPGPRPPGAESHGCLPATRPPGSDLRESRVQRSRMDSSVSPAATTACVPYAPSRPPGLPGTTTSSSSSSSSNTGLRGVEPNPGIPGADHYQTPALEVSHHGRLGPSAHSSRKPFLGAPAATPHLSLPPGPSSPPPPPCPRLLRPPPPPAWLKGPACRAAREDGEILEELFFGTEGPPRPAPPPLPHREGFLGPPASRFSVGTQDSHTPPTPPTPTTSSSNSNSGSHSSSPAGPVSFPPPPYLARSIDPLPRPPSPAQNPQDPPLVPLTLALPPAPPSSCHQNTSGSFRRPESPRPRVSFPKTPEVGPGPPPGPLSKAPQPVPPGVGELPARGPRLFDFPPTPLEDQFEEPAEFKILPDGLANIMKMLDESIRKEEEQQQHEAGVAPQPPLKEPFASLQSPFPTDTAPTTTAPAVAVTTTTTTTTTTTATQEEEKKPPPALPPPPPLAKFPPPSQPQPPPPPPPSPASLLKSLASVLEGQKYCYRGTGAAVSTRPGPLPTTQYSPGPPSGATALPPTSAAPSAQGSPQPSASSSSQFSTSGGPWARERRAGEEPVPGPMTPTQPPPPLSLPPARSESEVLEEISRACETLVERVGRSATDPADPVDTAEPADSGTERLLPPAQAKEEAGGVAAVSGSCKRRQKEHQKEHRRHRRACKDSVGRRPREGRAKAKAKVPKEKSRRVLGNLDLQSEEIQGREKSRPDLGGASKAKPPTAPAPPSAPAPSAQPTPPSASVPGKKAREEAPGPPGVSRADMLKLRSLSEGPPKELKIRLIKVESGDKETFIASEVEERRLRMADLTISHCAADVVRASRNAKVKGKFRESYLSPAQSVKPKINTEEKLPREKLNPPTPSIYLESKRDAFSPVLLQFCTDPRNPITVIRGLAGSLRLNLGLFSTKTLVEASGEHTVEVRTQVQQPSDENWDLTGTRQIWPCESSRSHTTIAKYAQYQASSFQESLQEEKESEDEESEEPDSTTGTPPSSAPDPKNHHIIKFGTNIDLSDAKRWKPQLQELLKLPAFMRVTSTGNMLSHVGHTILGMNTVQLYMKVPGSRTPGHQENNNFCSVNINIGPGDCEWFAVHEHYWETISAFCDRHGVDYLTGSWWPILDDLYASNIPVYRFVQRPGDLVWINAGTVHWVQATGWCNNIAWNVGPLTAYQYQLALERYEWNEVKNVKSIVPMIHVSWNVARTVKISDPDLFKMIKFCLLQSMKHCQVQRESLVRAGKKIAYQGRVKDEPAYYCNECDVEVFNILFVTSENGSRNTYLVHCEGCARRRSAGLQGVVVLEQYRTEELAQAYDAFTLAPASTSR

C=CCNC1=C2C[C@@H](C)C[C@H](OC)[C@H](O)[C@@H](C)/C=C(\C)[C@H](OC(N)=O)[C@@H](OC)/C=C\C=C(/C)C(=O)NC(=CC1=O)C2=O (stereo in doubt) [TANESPIMYCIN]
IC50 [1]: 130 nM
IC50 [2]: 400 nM
IC50 [3]: 700 nM

CC[C@H](C)[C@@H]1NC(=O)CNC(=O)[C@H](CO)NC(=O)[C@H](CCCNC(=N)N)NC(=O)[C@H](CCCNC(=N)N)NC(=O)[C@H](Cc2ccccc2)NC(=O)[C@H](CCCNC(=N)N)NC(=O)[C@H]([C@@H](C)O)NC(=O)[C@@H](Cc2ccc(O)cc2)NC(=O)CSC[C@@H](C(N)=O)NC(=O)[C@H](Cc2ccc(O)cc2)NC(=O)[C@H](Cc2ccc(O)cc2)NC(=O)[C@H](Cc2ccccc2)NC(=O)[C@H](C(C)C)NC1=O ({CH2CO}-[dY]TRFRRSGIVFYYC-NH2; thioether N-14)
IC50 [4]: 6 nM
IC50 [5]: 2.2 nM

CC(C)[C@@H]1NC(=O)[C@@H](Cc2ccc(O)cc2)NC(=O)CSC[C@@H](C(N)=O)NC(=O)[C@H]([C@@H](C)O)NC(=O)[C@H](Cc2ccc(O)cc2)NC(=O)[C@H](Cc2c[nH]c3ccccc23)NC(=O)[C@H](CCCNC(=N)N)NC(=O)[C@H](Cc2c[nH]c3ccccc23)NC(=O)CNC(=O)[C@H](CO)NC(=O)[C@H](CCCNC(=N)N)NC(=O)[C@H]([C@@H](C)O)NC(=O)[C@H](CC(N)=O)NC(=O)[C@H](Cc2ccc(O)cc2)NC1=O ({CH2CO}-[dY]VYNTRSGWRWYTC-NH2; thioether N-14)
IC50 [4]: 33 nM
IC50 [5]: 33 nM

CO[C@H]1/C=C\C=C(/C)C(=O)NC2=CC(=O)C(NCCN(C)C)=C(C[C@@H](C)C[C@H](OC)[C@H](O)[C@@H](C)/C=C(\C)[C@@H]1OC(N)=O)C2=O (stereo in doubt) [ALVESPIMYCIN]
IC50 [5]: 700 nM
IC50 [1]: 130 nM
IC50 [2]: 400 nM
IC50 [3]: 700 nM

CCCCCC[n+]1ccccc1C=Cc1ccc(N(C)C)cc1
IC50 [6]: 280 nM
IC50 [7]: 280 nM

Oc1ccccc1-c1nc(-c2ccccc2O)n(-c2ccccc2)n1
EC50 [8]: 3300 nM
GI50 [9]: 450 nM
GI50 [10]: 1700 nM

Cc1c(O)c(=O)ccn1C [DEFERIPRONE]
IC50 [11]: 3220 nM
IC50 [12]: 3330 nM

COC(=O)c1ccc(-n2nc(-c3ccccc3O)nc2-c2ccccc2O)cc1
EC50 [8]: 10000 nM
GI50 [9]: 450 nM
GI50 [10]: 1700 nM

O=C(O)c1ccc(-n2nc(-c3ccccc3O)nc2-c2ccccc2O)cc1 [DEFERASIROX]
EC50 [8]: 40500 nM
IC50 [11]: 3220 nM
IC50 [12]: 3330 nM
GI50 [9]: 3300 nM
GI50 [10]: 5500 nM

COC1=C2C[C@@H](C)C[C@H](OC)[C@H](O)[C@@H](C)/C=C(\C)[C@H](OC(N)=O)[C@@H](OC)/C=C\C=C(/C)C(=O)NC(=CC1=O)C2=O [GELDANAMYCIN]
IC50 [5]: 700 nM
IC50 [1]: 130 nM
IC50 [2]: 400 nM

CC(=O)N(O)CCCCCNC(=O)CCC(=O)N(O)CCCCCNC(=O)CCC(=O)N(O)CCCCCN [DEFEROXAMINE]
IC50 [11]: 3220 nM
IC50 [12]: 3330 nM
